Test results reported in patent US10869875B2, “Oxysterols and Hedgehog signaling” (MAX BIOPHARMA, INC., priority 2015, dated 2020).

Columns and labels:
[1] = system: Hedgehog target gene Gli1; assay: Expression of Hedgehog target gene Gli1 in NIH3T3 cells (quantitative RT-PCR); assay type: cell-based; conditions: for Gli1 gene expression relative to CM only / Hedgehog signaling (Gli1 gene expression) compared to the control / gene expression of the Hedgehog target gene Gli1 / Hedgehog signaling (Gli1 gene expression): NIH3T3 cells; for Hedgehog signaling (Gli1 gene expression) compared to the control: without CM; for gene expression of the Hedgehog target gene Gli1: in CM, 5 μM and 10 μM; for gene expression of the Hedgehog target gene Gli1 / Hedgehog signaling (Gli1 gene expression): FIG. 7; for Hedgehog signaling (Gli1 gene expression): in the absence of CM
Description: The compounds described herein were tested on cell cultures to assess their effects on Hedgehog target genes PTCH and Gli1. Conditioned medium (CM) was collected from CAPAN-1 human pancreatic tumor cells grown to confluence in DMEM containing 10%0/fetal bovine serium (FBS) and contains Hh proteins that activate the Hh pathway in cells receiving the CM. After 7 days of incubation of confluent cells with the described medium, CM was collected, spun for 5 minutes at 1800 rpm to remove dead cells and debris, and then frozen at −80° C. For treating cells, CM was thawed and diluted 1:2 to 1:6 with DMEM containing 5% FBS. NIH3T3 cells, HepG2 and SUFU−/−MEF cells were cultured in 12-well plates with DMEM containing 10% FBS. The cells were then treated with DMEM containing 5% FBS or CM in the presence or absence of the compounds prepared in DMSO when they reach confluence. Quantitative RT-PCR was then performed according to the following approach. After 72 to 96 hours of the treatments, the cells were lysed and subjected to RNA extraction with RNease Plus Min kit (Qiagen). A portion of RNA from each well was subjected to Reverse Transcription (RT) using iScript Reverse Transcription Supermix (BioRad). QPCR was performed to test the expression of Hh target genes PTCH and Gli1 using IQ SYBR Green Supermix (BioRad).

[2] = system: connective tissue growth factor (CTGF); assay: TGFβ1 induced expression of CTGF in NIH3T3 cells (Q-RT-PCR); assay type: cell-based; conditions: 10 uM, recombinant human TGFβ1 at 20 ng/ml, 48 hours, FIG. 8
Description: NIH3T3 cells were treated with recombinant human TGFβ1 at 20 ng/ml in the absence or presence of compound 21 at 10 uM. After 48 hours, RNA was extracted and analyzed by Q-RT-PCR for the expression of connective tissue growth factor (CTGF), a tumorigenic gene.

[3] = 10 μM, in the presence of CM, FIG. 6, result in words

C[C@]12CC[C@H]3[C@@H](CC=C4C[C@@H](O)CC[C@@]43C)[C@@H]1CC[C@@H]2[C@@](C)(O)CCc1ccc(F)cc1 [Oxy45, reference compound]
Gli1 gene expression relative to CM only ([1]; 5 μM, in the presence of conditioned medium (CM), FIG. 6): more than 2 fold
Gli1 gene expression relative to CM only ([1]; 10 μM, in the presence of conditioned medium (CM), FIG. 6): more than 2 fold
Hedgehog signaling (Gli1 gene expression) compared to the control ([1]; 10 μM, FIG. 6): stimulated Hedgehog signaling

C[C@]12CC[C@H]3[C@@H](CC=C4C[C@@H](O)CC[C@@]43C)[C@@H]1CC[C@@H]2[C@](C)(O)CCc1ccc(F)cc1 [compound 4, (3S,8S,9S,10R,13S,14S,17S)-17-((R)-4-(4-fluorophenyl)-2-hydroxybutan-2-yl)-10,13-dimethyl-2,3,4,7,89,10,11,12,13,14,15,16,17-tetradecahydro-1H-cyclopenta[a]phenanthren-3-ol]
Gli1 gene expression relative to CM only [1, 3]: greatly decreased
Hedgehog signaling (Gli1 gene expression) compared to the control ([1]; 10 μM, FIG. 6): did not show this effect

C[C@]12CC[C@H](O)C[C@@H]1CC[C@@H]1[C@@H]2CC[C@@]2(C)[C@H]1CC[C@@H]2[C@](C)(O)CCc1ccc(F)cc1 [compound 6, (3S,5S,8R,9S,10S,13S,14S,17S)-17-((R)-4-(4-fluorophenyl)-2-hydroxybutan-2-yl)-10,13-dimethylhexadecahydro-1H-cyclopenta[a]phenanthren-3-ol]
Gli1 gene expression relative to CM only ([1]; 5 μM, in the presence of CM, FIG. 6, result in words): greatly decreased
Gli1 gene expression relative to CM only [1, 3]: greatly decreased
Hedgehog signaling (Gli1 gene expression) compared to the control ([1]; 10 μM, FIG. 6): did not show this effect
inhibition of Gli1 expression vs. compound 4 ([1]; comparison with compound 4 (C5-C6 double bond, C20 R-stereochemistry), FIG. 1): increased
inhibition of Gli1 expression vs. compound 18 ([1]; comparison with compound 18 (C20 S-stereochemistry, C5-C6 single bond), FIGS. 1 and 3): increased

C[C@]12CC[C@H]3[C@@H](CC=C4C[C@@H](O)CC[C@@]43C)[C@@H]1CC[C@@H]2[C@](C)(O)CCc1cccnc1 [compound 21, (3S,8S,9S,10R,13S,14S,17S)-17-((R)-2-hydroxy-4-(pyridin-3-yl)butan-2-yl)-10,13-dimethyl-2,3,4,7,8,9,10,11,12,13,14,15,16,17-tetradecahydro-1H-cyclopenta[a]phenanthren-3-ol]
gene expression of the Hedgehog target gene Gli1 [1]: decreased
Hedgehog signaling (Gli1 gene expression) [1]: did not
TGFβ1 induced expression of CTGF [2]: inhibited

C[C@]12CC[C@H]3[C@@H](CC=C4C[C@@H](O)CC[C@@]43C)[C@@H]1CC[C@@H]2[C@@](C)(O)CCc1cccnc1 [Oxy43, reference compound]
gene expression of the Hedgehog target gene Gli1 [1]: greatly increased
Hedgehog signaling (Gli1 gene expression) [1]: stimulated Hedgehog signaling
